Measured values: ChEMBL document CHEMBL4507257, “Data for DCP probe ABT-100” (2021)

Assays:
[1] = system: Tyrosine-protein kinase ABL1 (Homo sapiens), P00519 [H396P]; settings: Compound concentration 1000.0 nM
[2] = target: Phosphatidylinositol 4-phosphate 5-kinase type-1 gamma (Homo sapiens) (UniProt O60331); settings: Compound concentration 1000.0 nM
[3] = system: Receptor-type tyrosine-protein kinase FLT3 (Homo sapiens), P36888 [UNDEFINED MUTATION]; settings: Compound concentration 1000.0 nM
[4] = target: D(1A) dopamine receptor (Homo sapiens) (UniProt P21728); settings: Compound concentration 10.0 uM
[5] = target: Activin receptor type-2A (Homo sapiens) (UniProt P27037); settings: Compound concentration 1000.0 nM
[6] = target: cAMP-dependent protein kinase catalytic subunit beta (Homo sapiens) (UniProt P22694); settings: Compound concentration 1000.0 nM
[7] = target: Casein kinase I isoform epsilon (Homo sapiens) (UniProt P49674); settings: Compound concentration 1000.0 nM
[8] = target: Atypical kinase COQ8A, mitochondrial (Homo sapiens) (UniProt Q8NI60); settings: Compound concentration 1000.0 nM
[9] = target: Cyclin-dependent kinase 19 (Homo sapiens) (UniProt Q9BWU1); settings: Compound concentration 1000.0 nM
[10] = target: Tyrosine-protein kinase HCK (Homo sapiens) (UniProt P08631); settings: Compound concentration 1000.0 nM
[11] = target: Serine/threonine-protein kinase PLK2 (Homo sapiens) (UniProt Q9NYY3); settings: Compound concentration 1000.0 nM
[12] = target: Serine/threonine-protein kinase WNK1 (Homo sapiens) (UniProt Q9H4A3); settings: Compound concentration 1000.0 nM
[13] = target: Ephrin type-A receptor 4 (Homo sapiens) (UniProt P54764); settings: Compound concentration 1000.0 nM
[14] = target: Phosphatidylinositol 4,5-bisphosphate 3-kinase catalytic subunit alpha isoform (Homo sapiens) (UniProt P42336); settings: Compound concentration 1000.0 nM
[15] = target: Ribosomal protein S6 kinase alpha-4 (Homo sapiens) (UniProt O75676); settings: Compound concentration 1000.0 nM
[16] = target: Casein kinase I isoform alpha (Homo sapiens) (UniProt P48729); settings: Compound concentration 1000.0 nM
[17] = target: Myosin-IIIb (Homo sapiens) (UniProt Q8WXR4); settings: Compound concentration 1000.0 nM
[18] = system: Mast/stem cell growth factor receptor Kit (Homo sapiens), P10721 [V559D,T670I]; settings: Compound concentration 1000.0 nM
[19] = system: Phosphatidylinositol 4,5-bisphosphate 3-kinase catalytic subunit alpha isoform (Homo sapiens), P42336 [Q546K]; settings: Compound concentration 1000.0 nM
[20] = target: Cyclin-dependent kinase 4 (Homo sapiens) (UniProt P11802); settings: Compound concentration 1000.0 nM
[21] = target: Bone morphogenetic protein receptor type-1B (Homo sapiens) (UniProt O00238); settings: Compound concentration 1000.0 nM
[22] = target: Serine/threonine-protein kinase PAK 1 (Homo sapiens) (UniProt Q13153); settings: Compound concentration 1000.0 nM
[23] = target: GABA-A receptor; anion channel (Rattus norvegicus) (UniProt O09028+P15431+P18506+P18508+P19969+P20236+P23574+P23576+P28471+P28473+P30191+P62813+P63079+P63138+Q91ZM7+Q9ES14); settings: Compound concentration 10.0 uM
[24] = target: SRSF protein kinase 2 (Homo sapiens) (UniProt P78362); settings: Compound concentration 1000.0 nM
[25] = target: Tyrosine-protein kinase Mer (Homo sapiens) (UniProt Q12866); settings: Compound concentration 1000.0 nM
[26] = target: Activin receptor type-1-like (Homo sapiens) (UniProt P37023); settings: Compound concentration 1000.0 nM
[27] = target: Ephrin type-A receptor 8 (Homo sapiens) (UniProt P29322); settings: Compound concentration 1000.0 nM
[28] = target: Ephrin type-B receptor 4 (Homo sapiens) (UniProt P54760); settings: Compound concentration 1000.0 nM
[29] = target: Serine/threonine-protein kinase tousled-like 1 (Homo sapiens) (UniProt Q9UKI8); settings: Compound concentration 1000.0 nM
[30] = target: Cyclin-dependent kinase 5 (Homo sapiens) (UniProt Q00535); settings: Compound concentration 1000.0 nM
[31] = target: Serine/threonine-protein kinase RIO1 (Homo sapiens) (UniProt Q9BRS2); settings: Compound concentration 1000.0 nM
[32] = system: Tyrosine-protein kinase ABL1 (Homo sapiens), P00519 [F317I]; settings: Compound concentration 1000.0 nM
[33] = target: Serine/threonine-protein kinase D3 (Homo sapiens) (UniProt O94806); settings: Compound concentration 1000.0 nM
[34] = target: Serine/threonine-protein kinase haspin (Homo sapiens) (UniProt Q8TF76); settings: Compound concentration 1000.0 nM
[35] = target: Calcium/calmodulin-dependent protein kinase type 1G (Homo sapiens) (UniProt Q96NX5); settings: Compound concentration 1000.0 nM
[36] = target: Serine/threonine-protein kinase TNNI3K (Homo sapiens) (UniProt Q59H18); settings: Compound concentration 1000.0 nM
[37] = target: Tyrosine-protein kinase receptor Tie-1 (Homo sapiens) (UniProt P35590); settings: Compound concentration 1000.0 nM

Receptor-type tyrosine-protein kinase FLT3 (Homo sapiens), P36888 [UNDEFINED MUTATION], sequence (P36888 whole entry, looked up, change not shown): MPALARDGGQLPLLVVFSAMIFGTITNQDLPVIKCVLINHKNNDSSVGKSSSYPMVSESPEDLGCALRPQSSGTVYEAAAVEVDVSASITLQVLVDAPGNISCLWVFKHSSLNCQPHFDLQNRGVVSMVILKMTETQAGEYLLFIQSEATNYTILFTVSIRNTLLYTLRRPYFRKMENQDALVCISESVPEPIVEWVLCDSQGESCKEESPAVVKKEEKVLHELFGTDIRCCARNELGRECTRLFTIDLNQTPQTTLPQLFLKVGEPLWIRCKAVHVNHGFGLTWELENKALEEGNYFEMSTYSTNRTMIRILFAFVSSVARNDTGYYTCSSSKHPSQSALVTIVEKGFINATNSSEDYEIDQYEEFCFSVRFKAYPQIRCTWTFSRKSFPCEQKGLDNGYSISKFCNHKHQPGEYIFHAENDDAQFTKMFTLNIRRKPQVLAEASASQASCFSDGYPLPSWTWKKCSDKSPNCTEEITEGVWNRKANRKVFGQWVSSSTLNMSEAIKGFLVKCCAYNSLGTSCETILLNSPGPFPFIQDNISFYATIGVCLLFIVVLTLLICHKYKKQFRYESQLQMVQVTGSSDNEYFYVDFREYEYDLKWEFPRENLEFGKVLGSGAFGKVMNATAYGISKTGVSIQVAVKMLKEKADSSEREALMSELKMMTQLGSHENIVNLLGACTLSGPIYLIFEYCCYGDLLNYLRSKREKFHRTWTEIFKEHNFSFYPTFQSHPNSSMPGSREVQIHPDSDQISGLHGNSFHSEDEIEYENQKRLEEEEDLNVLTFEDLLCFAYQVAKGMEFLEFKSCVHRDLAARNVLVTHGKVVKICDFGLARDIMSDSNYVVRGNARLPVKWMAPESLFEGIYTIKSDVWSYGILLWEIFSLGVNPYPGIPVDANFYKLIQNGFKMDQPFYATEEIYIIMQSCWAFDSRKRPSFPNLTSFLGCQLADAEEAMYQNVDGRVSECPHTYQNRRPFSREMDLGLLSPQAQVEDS
Ephrin type-B receptor 4 (Homo sapiens), sequence (P54760 whole entry): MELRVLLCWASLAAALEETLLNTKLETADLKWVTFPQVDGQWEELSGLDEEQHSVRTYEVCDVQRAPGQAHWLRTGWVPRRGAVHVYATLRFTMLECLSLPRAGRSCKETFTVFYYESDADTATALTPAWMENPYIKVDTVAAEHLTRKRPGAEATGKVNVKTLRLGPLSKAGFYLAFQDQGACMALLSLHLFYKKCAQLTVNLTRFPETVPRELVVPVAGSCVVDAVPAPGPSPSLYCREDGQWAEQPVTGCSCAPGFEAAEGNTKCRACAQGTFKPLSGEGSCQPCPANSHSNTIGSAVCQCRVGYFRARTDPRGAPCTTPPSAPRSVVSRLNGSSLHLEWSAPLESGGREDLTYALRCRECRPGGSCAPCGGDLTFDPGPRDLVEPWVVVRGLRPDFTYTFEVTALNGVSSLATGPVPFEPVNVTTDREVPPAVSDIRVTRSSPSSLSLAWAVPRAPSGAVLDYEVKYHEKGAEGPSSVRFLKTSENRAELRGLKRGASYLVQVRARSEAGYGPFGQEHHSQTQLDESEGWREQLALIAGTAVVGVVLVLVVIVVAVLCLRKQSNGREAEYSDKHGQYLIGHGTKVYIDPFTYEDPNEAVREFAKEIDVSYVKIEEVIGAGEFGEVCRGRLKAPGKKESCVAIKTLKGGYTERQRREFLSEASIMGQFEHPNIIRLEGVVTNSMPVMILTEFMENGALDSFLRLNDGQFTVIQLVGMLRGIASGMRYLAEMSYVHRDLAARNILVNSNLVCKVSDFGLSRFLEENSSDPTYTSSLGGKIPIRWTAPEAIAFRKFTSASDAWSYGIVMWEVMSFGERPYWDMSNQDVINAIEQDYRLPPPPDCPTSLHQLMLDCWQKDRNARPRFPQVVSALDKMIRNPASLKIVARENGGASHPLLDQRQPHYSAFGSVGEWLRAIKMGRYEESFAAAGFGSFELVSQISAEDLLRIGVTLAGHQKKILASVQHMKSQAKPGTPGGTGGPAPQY
D(1A) dopamine receptor (Homo sapiens), sequence (P21728 whole entry): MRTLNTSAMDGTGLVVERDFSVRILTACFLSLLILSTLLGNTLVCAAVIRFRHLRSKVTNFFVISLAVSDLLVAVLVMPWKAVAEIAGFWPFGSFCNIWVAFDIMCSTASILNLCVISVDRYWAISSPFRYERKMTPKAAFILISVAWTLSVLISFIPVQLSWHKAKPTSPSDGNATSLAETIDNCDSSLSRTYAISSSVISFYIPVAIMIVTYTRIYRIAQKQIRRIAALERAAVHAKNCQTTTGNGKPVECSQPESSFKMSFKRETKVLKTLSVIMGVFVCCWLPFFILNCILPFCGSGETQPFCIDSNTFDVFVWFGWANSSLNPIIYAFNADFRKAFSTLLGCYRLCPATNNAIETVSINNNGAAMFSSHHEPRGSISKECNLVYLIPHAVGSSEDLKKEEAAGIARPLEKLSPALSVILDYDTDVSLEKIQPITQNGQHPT
Phosphatidylinositol 4,5-bisphosphate 3-kinase catalytic subunit alpha isoform (Homo sapiens), sequence (P42336 whole entry, canonical isoform): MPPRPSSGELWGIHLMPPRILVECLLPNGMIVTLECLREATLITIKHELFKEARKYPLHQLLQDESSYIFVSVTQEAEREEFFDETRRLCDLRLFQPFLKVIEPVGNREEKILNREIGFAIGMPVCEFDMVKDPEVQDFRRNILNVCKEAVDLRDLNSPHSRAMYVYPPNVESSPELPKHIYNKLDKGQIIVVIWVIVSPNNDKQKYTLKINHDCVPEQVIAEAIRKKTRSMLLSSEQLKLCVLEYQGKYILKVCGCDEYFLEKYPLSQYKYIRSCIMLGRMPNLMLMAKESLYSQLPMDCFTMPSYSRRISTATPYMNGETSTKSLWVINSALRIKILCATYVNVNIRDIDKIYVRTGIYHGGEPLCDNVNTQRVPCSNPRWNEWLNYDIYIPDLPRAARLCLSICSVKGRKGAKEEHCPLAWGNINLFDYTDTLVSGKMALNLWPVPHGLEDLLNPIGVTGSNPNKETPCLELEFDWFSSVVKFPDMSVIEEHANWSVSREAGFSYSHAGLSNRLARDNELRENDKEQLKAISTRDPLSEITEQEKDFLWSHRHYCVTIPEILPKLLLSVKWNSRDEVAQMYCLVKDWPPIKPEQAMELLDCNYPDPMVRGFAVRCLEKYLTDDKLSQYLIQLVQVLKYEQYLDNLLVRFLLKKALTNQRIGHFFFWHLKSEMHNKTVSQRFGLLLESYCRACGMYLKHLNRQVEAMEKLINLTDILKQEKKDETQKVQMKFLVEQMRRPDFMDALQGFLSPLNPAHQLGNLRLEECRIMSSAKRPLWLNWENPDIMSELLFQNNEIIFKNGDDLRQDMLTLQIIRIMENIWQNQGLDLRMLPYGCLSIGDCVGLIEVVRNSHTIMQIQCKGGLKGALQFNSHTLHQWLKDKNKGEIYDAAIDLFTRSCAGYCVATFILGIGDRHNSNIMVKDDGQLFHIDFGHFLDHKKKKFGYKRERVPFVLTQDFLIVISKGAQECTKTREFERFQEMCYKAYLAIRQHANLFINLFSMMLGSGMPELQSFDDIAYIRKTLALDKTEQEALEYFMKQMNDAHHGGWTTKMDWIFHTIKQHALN
Tyrosine-protein kinase HCK (Homo sapiens), sequence (P08631 2-526 limits assumed): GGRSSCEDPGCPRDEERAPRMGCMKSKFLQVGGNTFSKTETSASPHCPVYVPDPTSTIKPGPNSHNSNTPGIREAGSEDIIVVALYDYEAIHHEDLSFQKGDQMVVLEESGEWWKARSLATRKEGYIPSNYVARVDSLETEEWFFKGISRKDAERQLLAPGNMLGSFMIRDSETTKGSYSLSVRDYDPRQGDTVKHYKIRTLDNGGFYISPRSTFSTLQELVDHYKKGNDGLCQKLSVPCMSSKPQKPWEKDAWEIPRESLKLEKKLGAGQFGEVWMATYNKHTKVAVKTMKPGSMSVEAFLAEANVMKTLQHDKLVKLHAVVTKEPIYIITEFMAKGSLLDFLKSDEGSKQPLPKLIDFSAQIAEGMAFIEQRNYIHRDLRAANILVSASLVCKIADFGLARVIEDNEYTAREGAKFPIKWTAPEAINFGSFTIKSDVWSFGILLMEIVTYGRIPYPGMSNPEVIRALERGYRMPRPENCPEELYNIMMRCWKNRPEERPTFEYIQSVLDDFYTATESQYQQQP
Serine/threonine-protein kinase RIO1 (Homo sapiens), sequence (Q9BRS2 whole entry): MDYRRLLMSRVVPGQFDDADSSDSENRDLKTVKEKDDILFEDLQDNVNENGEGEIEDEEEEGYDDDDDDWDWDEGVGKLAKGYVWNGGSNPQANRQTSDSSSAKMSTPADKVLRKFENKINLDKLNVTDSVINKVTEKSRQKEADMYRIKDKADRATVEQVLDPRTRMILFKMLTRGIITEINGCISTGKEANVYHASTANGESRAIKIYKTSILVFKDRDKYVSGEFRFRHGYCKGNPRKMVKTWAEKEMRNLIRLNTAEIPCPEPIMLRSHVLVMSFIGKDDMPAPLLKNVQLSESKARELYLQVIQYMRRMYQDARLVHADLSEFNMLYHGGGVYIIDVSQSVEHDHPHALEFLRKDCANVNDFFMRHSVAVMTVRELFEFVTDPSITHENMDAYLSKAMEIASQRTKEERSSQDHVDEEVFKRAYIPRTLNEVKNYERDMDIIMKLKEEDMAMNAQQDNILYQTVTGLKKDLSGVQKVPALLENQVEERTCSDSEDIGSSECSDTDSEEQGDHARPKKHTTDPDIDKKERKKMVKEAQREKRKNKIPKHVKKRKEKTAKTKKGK
Cyclin-dependent kinase 5 (Homo sapiens), sequence (Q00535 whole entry, looked up): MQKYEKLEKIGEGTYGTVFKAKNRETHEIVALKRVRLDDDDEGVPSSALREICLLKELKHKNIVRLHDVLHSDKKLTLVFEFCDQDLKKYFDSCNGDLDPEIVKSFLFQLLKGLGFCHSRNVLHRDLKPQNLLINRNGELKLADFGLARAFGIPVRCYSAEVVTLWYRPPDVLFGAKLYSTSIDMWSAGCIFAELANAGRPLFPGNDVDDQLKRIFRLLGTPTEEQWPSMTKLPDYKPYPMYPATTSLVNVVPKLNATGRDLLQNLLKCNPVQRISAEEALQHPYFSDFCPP
Phosphatidylinositol 4,5-bisphosphate 3-kinase catalytic subunit alpha isoform (Homo sapiens), P42336 [Q546K], sequence (P42336 whole entry Q546K, canonical isoform): as the sequence (P42336 whole entry, canonical isoform) above, with Q546K counted along it

SMILES | residual activity [1] | residual activity [2] | residual activity [3] | inhibition [4] | residual activity [5] | residual activity [6] | residual activity [7] | residual activity [8] | residual activity [9] | residual activity [10] | residual activity [11] | residual activity [12] | residual activity [13] | residual activity [14] | residual activity [15] | residual activity [16] | residual activity [17] | residual activity [18] | residual activity [19] | residual activity [20] | other results
Cn1cncc1[C@@](O)(COc1ccc(C#N)cc1-c1ccc(OC(F)(F)F)cc1)c1ccc(C#N)cc1 [A-108] | 88% | 100% | 80% | 19% | 98% | 100% | 100% | 100% | 64% | 100% | 86% | 100% | 12% | 72% | 93% | 78% | 55% | 82% | 85% | 100% | residual activity [21]: 96%; residual activity [22]: 100%; inhibition [23]: 6.36%; residual activity [24]: 55%; residual activity [25]: 69%; residual activity [26]: 100%; residual activity [27]: 100%; residual activity [28]: 100%; residual activity [29]: 100%; residual activity [30]: 96%; residual activity [31]: 100%; residual activity [32]: 100%; residual activity [33]: 98%; residual activity [34]: 100%; residual activity [35]: 85%; residual activity [36]: 100%; residual activity [37]: 100%
Cn1cncc1[C@](O)(COc1ccc(C#N)cc1-c1ccc(OC(F)(F)F)cc1)c1ccc(C#N)cc1 [ABT-100] | 91% | 93% | 69% | 4.35% | 100% | 93% | 77% | 92% | 84% | 100% | 94% | 100% | 100% | 100% | 89% | 100% | 71% | 84% | 82% | 100% | residual activity [21]: 77%; residual activity [22]: 100%; inhibition [23]: 2.72%; residual activity [24]: 100%; residual activity [25]: 84%; residual activity [26]: 100%; residual activity [27]: 72%; residual activity [28]: 98%; residual activity [29]: 100%; residual activity [30]: 92%; residual activity [31]: 72%; residual activity [32]: 98%; residual activity [33]: 100%; residual activity [34]: 100%; residual activity [35]: 96%; residual activity [36]: 82%; residual activity [37]: 85%
